Source: patent US20210338555A1, “COMPOSITION AND METHOD OF INHIBITING MINERALOCORTICOID RECEPTOR ACTIVITY BY APPLYING IT TO THE SKIN” (AMOREPACIFIC CORPORATION, priority 2018, published 2021)

Tested on: mineralocorticoid receptor
Experiment: MMTV-luciferase reporter assay of mineralocorticoid receptor activity in CV-1 cells
Type: cell-based
Settings: 10 μg/ml compound, after 2 hours dexamethasone (1 nM), cultivated 24 hours, FIG. 2
Protocol: RNA was separated from a CV-1 cell and PCR was performed using reverse transcriptase, so gene expressions of a glucocorticoid receptor (GR) and a mineralocorticoid receptor (MR) were confirmed, and the results are shown in FIG. 1.
The CV-1 cell was cultivated in a 24-well flat incubator. After 24 hours, the incubating medium was replaced with a 10% charcoal dextran-treated FBS-DMEM, and then after 4 hours, a mixing DNA of a MMTV-luciferase reporter plasmid and an internal Control Group of a pRL-SV-40 plasmid was transfected using TRANSFAST™ reagent (Promega). After 24 hours, it was treated with 10 μg/ml of the compound (INDOFINE Chemical Company, Inc.) represented by Chemical Formula 1-1, and after 2 hours, was treated with dexamethasone (1 nM), and then cultivated for 24 hours. The luciferase activity in the cell lysate was measured using a Dual-Luciferase Reporter Assay System (Promega), and the transfection efficiency was normalized by revising Renilla luciferase activity to measure a relative luciferase activity, and the results are shown in FIG. 2.

Question: With `O=c1c(-c2ccc(O)c(O)c2)coc2cc(O)ccc12` [Chemical Formula 1-1] as the compound, how does the “relative luciferase activity (mineralocorticoid receptor activity induced by dexamethasone)” value read?
Answer: The value was “deteriorated activity of the mineralocorticoid receptor”.
